# Results: EP1202975B1, “SUBSTITUTED POLYCYCLIC ARYL AND HETEROARYL PYRAZINONES USEFUL FOR SELECTIVE INHIBITION OF THE COAGULATION CASCADE” (Pharmacia Corporation, priority 1999, dated 2000)
# Where two headings read alike, the source gives them in different places.
# Tests used:
# TF-VIIa = molecular target: T1, TF-VIIa (Homo sapiens, UniProt P08709); experiment: TF-VIIa Assay; format: biochemical
# T1 construct: 2nM recombinant human factor VIIa; purchased American Diagnostica, Greenwich CT; host or cells: soluble TF made in house in E. coli
# Human factor Xa = Human factor Xa (Homo sapiens, UniProt P00742)
# [1] = read-out: IC50 or % Inhibition TF-VIIa (30 µM); cells given as a plain number (IC50)
# [2] = read-out: IC50 or % Inhibition TF-VIIa (30 µM); cells without % sign: IC50
# [3] = cells given as a plain number (IC50); read-out: IC50 or % Inhibition TF-VIIa (30 µM)
# T1 sequence (P08709 213-466 limits assumed): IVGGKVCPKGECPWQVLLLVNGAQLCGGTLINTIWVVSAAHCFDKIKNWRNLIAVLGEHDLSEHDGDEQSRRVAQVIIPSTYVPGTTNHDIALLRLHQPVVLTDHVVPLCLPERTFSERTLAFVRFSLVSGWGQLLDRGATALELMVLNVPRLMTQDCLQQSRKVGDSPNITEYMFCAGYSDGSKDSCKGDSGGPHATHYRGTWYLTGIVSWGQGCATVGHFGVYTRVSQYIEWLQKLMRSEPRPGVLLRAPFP
# T1 sequence (P08709 61-212 limits assumed): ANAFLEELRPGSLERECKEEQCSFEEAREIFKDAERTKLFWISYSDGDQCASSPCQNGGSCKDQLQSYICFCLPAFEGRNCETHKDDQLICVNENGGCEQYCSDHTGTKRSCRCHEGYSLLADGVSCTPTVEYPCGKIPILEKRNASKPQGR
# T1 sequence (P13726 33-251 partner limits assumed): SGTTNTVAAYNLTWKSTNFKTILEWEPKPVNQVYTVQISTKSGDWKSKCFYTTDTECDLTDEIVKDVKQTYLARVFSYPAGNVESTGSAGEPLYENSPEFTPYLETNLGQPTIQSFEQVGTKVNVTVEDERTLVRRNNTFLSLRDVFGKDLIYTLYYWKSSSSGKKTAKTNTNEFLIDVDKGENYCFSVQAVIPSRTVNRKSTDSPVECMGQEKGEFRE
# Human factor Xa, sequence (P00742 235-488 limits assumed): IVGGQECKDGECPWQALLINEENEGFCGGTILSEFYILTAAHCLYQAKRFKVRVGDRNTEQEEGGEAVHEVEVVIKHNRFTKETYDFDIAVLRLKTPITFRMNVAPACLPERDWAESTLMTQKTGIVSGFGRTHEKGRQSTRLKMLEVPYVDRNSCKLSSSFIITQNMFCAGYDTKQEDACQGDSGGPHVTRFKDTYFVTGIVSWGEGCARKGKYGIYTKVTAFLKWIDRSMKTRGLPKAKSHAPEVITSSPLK
# Human factor Xa, sequence (P00742 41-179 limits assumed): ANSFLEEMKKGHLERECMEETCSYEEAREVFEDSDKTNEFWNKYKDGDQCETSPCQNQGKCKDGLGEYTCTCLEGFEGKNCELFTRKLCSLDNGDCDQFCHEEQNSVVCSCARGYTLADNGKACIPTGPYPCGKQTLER
SMILES,IC50 or % Inhibition Factor Xa (30 µM) (Human factor Xa) [%],IC50 (TF-VIIa; [1]) [µM],% Inhibition TF-VIIa (100 µM) (TF-VIIa) [%],% Inhibition Factor Xa (100 µM) (Human factor Xa) [%],further results
CC(C)Nc1nc(Cl)c(-c2cccc([N+](=O)[O-])c2)n(CC(=O)NCc2ccc(C(N)=NO)cc2)c1=O [Example 61],0,,,,IC50 or % Inhibition TF-VIIa (30 µM) (TF-VIIa): 1%
C[C@@H](C(=O)NCc1ccc(C(=N)N)cc1)n1c(-c2ccccc2)c(Cl)nc(NCCc2ccccc2)c1=O [1517-15],0,3.1,,,
Nc1n[nH]c2cc(CNC(=O)Cn3c(-c4ccccc4)cnc(NCCc4ccccc4)c3=O)ccc12 [Example 39],0,1.7,,,
N=C(N)c1ccc(CNC(=O)Cn2c(-c3ccc(Cl)cc3)c(Cl)nc(NCCc3ccc(Cl)cc3)c2=O)cc1 [1471-18],26,11.2,,,
CCc1c(Cl)nc(NCc2ccncc2)c(=O)n1CC(=O)NCc1ccc(C(=N)N)cc1 [1471-59],0,7.52,,,
N=C(N)c1ccc(CNC(=O)Cn2c(-c3ccccc3)c(Cl)nc(NCc3c(F)cccc3C(F)(F)F)c2=O)cc1 [1512-44],6,,,,IC50 or % Inhibition TF-VIIa (30 µM) (TF-VIIa): 43%
N=C(N)c1ccc(CNC(=O)C(Cc2ccccc2)n2c(-c3ccccc3)c(Cl)nc(NCCc3ccccc3)c2=O)cc1 (stereo not drawn) [1517-14],0,,,,IC50 or % Inhibition TF-VIIa (30 µM) (TF-VIIa): 30%
N=C(N)c1ccc(CNC(=O)Cn2c(-c3cccc(Cl)c3)c(Cl)nc(NCCN3CCOCC3)c2=O)cc1 [1471-28],8,7.22,,,
CCCNc1nc(Cl)c(-c2cccc(N)c2)n(CC(=O)NCc2ccc(C(=N)N)cc2F)c1=O [1543-35],8,,,,IC50 (TF-VIIa; [2]): 0.07 µM
Cc1c(Cl)nc(NCCN2CCOCC2)c(=O)n1CC(=O)NCc1ccc(C(=N)N)cc1 [1471-4],0,29.4,,,
C[Si](C)(C)CNc1nc(Cl)c(-c2ccccc2)n(CC(=O)NCc2ccc(C(=N)N)cc2)c1=O [1517-36],0,3,,,
CSCC(C(=O)NCc1ccc(C(=N)N)cc1)n1c(-c2ccccc2)c(Cl)nc(NCCc2ccccc2)c1=O (stereo not drawn) [1517-16],0,3.4,,,
N=C(N)c1ccc(CNC(=O)Cn2c(-c3ccc(Cl)cc3)c(Cl)nc(NCc3ccncc3)c2=O)cc1 [1471-19],26,,,,IC50 or % Inhibition TF-VIIa (30 µM) (TF-VIIa): 33%
CCOc1ccccc1CNc1nc(Cl)c(-c2ccccc2)n(CC(=O)NCc2ccc(C(=N)N)cc2)c1=O [1512-11],5,30,,,
N=C(N)c1ccc(CNC(=O)Cn2c(-c3ccc4c(c3)OCO4)c(Cl)nc(NCCc3ccc(Cl)cc3)c2=O)cc1 [1471-42],15,10.5,,,
N=C(N)c1ccc(CNC(=O)Cn2c(-c3ccc(Cl)cc3)c(Cl)nc(NCCc3ccccc3)c2=O)cc1 [1471-23],36,,,,IC50 (TF-VIIa; [3]): 8.88 µM
CN1CCCC1CCNc1nc(Cl)c(-c2ccccc2)n(CC(=O)NCc2ccc(C(=N)N)cc2)c1=O (stereo not drawn) [1512-46],10,11.7,,,
N=C(N)c1ccc(CNC(=O)Cn2c(-c3ccccc3)c(Cl)nc(NCCCc3ccccc3)c2=O)cc1 [1512-06],4,,,,IC50 (TF-VIIa; [3]): 12.6 µM
N=C(N)c1ccc(CNC(=O)Cn2c(-c3ccccc3)c(Cl)nc(NCc3cccc(OC(F)(F)F)c3)c2=O)cc1 [1512-40],3,,,,IC50 or % Inhibition TF-VIIa (30 µM) (TF-VIIa): 40%

SMILES,IC50 or % Inhibition Factor Xa (30 µM) (Human factor Xa) [%],IC50 (TF-VIIa; [1]) [µM],% Inhibition TF-VIIa (100 µM) (TF-VIIa) [%],% Inhibition Factor Xa (100 µM) (Human factor Xa) [%],further results
CCNc1nc(Cl)c(-c2cccc(N)c2)n(CC(=O)NCc2ccc(C(=N)N)cc2F)c1=O [1543-31],8,,,,IC50 (TF-VIIa; [2]): 0.04 µM
C[C@@H](C(=O)NCc1ccc(C(=N)N)cc1)n1c(-c2ccccc2)c(Cl)nc(NC2CCC2)c1=O [1517-09],0,2.6,,,
N=C(N)c1ccc(CNC(=O)Cn2c(-c3ccccc3)c(Cl)nc(NCc3ccccc3Cl)c2=O)cc1 [1507-03],21,3.6,,,
Nc1n[nH]c2ccc(CNC(=O)Cn3c(-c4ccccc4)cnc(NCCc4ccccc4)c3=O)cc12 [Example 38],22,0.9,,,
N=C(N)c1ccc(CNC(=O)Cn2c(-c3ccccc3)c(Cl)nc(NCc3ccccn3)c2=O)cc1 [1507-24],15,,,,IC50 or % Inhibition TF-VIIa (30 µM) (TF-VIIa): 0%
Cc1c(Cl)nc(NCCc2cccnc2)c(=O)n1CC(=O)NCc1ccc(C(=N)N)cc1 [1471-8],27,3.86,,,
N=C(N)c1ccc(CNC(=O)Cn2c(-c3cccc(N)c3)c(Cl)nc(NCCCCN3CCCC3)c2=O)cc1 [1543-21],27,,,,IC50 (TF-VIIa; [2]): 0.29 µM
N=C(N)c1ccc(CNC(=O)Cn2c(-c3ccccc3)c(Cl)nc(NCCCn3ccnc3)c2=O)cc1 [1507-05],10,4.7,,,
CCCCCNc1nc(Cl)c(-c2ccccc2)n(CC(=O)NCc2ccc(C(=N)N)cc2)c1=O [1517-48],0,1.2,,,
C[C@H](C(=O)NCc1ccc(C(=N)N)cc1)n1c(-c2ccccc2)c(Cl)nc(NCCc2cccc(Cl)c2)c1=O [1517-23],0,2.3,,,
CCc1c(Cl)nc(NCCc2cccc(Cl)c2)c(=O)n1CC(=O)NCc1ccc(C(=N)N)cc1 [1471-62],0,,,,IC50 or % Inhibition TF-VIIa (30 µM) (TF-VIIa): 4%
CCCCNc1nc(Cl)c(-c2cccc(N)c2)n(CC(=O)NCc2ccc(C(=N)N)cc2F)c1=O [1543-36],15,,,,IC50 (TF-VIIa; [2]): 0.08 µM
N=C(N)c1ccc(CNC(=O)Cn2c(-c3ccc(Cl)cc3)c(Cl)nc(NCCc3cccc(Cl)c3)c2=O)cc1 [1471-22],28,14.6,,,
C[C@H](C(=O)NCc1ccc(C(=N)N)cc1)n1c(-c2ccccc2)c(Cl)nc(NCc2ccccc2)c1=O [1517-05],0,4.6,,,
N=C(N)c1ccc(CNC(=O)Cn2c(-c3ccsc3)c(Cl)nc(NC3CCC3)c2=O)cc1 [1517-07],0,0.4,,,
N=C(N)c1ccc(CNC(=O)Cn2c(-c3cccc(Cl)c3)c(Cl)nc(NCCc3cccc(Cl)c3)c2=O)cc1 [1471-30],41,0.83,,,
N=C(N)c1ccc(CNC(=O)Cn2c(-c3ccccc3O)c(Cl)nc(NC3CCC3)c2=O)cc1 [Example 66],0,,,,IC50 (TF-VIIa; [3]): 0.34 µM
N=C(N)c1ccc(CNC(=O)Cn2c(-c3ccccc3)c(Cl)nc(NCCc3ccccn3)c2=O)cc1 [1512-47],13,3.5,,,

# More lines, main results first:
IC50 or % Inhibition Factor Xa (30 µM) (Human factor Xa) [%],IC50 (TF-VIIa; [1]) [µM],% Inhibition TF-VIIa (100 µM) (TF-VIIa) [%],% Inhibition Factor Xa (100 µM) (Human factor Xa) [%],SMILES,further results
,,3,5,COc1ccc(-c2c(Cl)nc(NCCc3cccc(Cl)c3)c(=O)n2CC(=O)NCCc2cccnc2)cc1 [Example E-0104],
,,0,0,O=C(Cn1c(Cc2ccccc2)c(Cl)nc(NCCc2cccnc2)c1=O)NCCc1ccncc1 [Example E-0061],
,,0,0,O=C(Cn1c(Cc2ccccc2)c(Cl)nc(NCCc2ccccc2)c1=O)NCCc1ccncc1 [Example E-0058],
,,0,0,O=C(Cn1c(Cc2ccccc2)c(Cl)nc(NCc2ccncc2)c1=O)NCCc1ccncc1 [Example E-0064],
,,0,1,COc1ccc(-c2c(Cl)nc(NCCN3CCOCC3)c(=O)n2CC(=O)NCCc2ccncc2)cc1 [Example E-0039],
,,0,2,COc1ccc(-c2c(Cl)nc(NCc3ccccc3)c(=O)n2CC(=O)NCCc2cccnc2)cc1 [Example E-0098],
,,0,0,COc1ccc(-c2c(Cl)nc(NCc3ccncc3)c(=O)n2CC(=O)NCCc2ccncc2)cc1 [Example E-0040],
,,0,0,O=C(Cn1c(-c2ccccc2)c(Cl)nc(NCCN2CCOCC2)c1=O)NCCc1ccncc1 [Example E-0015],
,,0,6,O=C(Cn1c(Cc2ccccc2)c(Cl)nc(NCc2ccccc2)c1=O)NCCc1ccncc1 [Example E-0057],
,,0,0,O=C(Cn1c(CCc2ccccc2)c(Cl)nc(NCCc2cccnc2)c1=O)NCCc1ccncc1 [Example E-0069],
,,0,3,O=C(Cn1c(-c2ccc(-c3ccccc3)cc2)c(Cl)nc(NCc2ccccc2)c1=O)NCCc1cccnc1 [Example E-0110],
,,0,0,Cc1c(Cl)nc(NCCc2ccccc2)c(=O)n1CC(=O)NCCc1ccncc1 [Example E-0002],
,,0,0,O=C(Cn1c(-c2ccc3c(c2)OCO3)c(Cl)nc(NCCc2cccnc2)c1=O)NCCc1ccncc1 [Example E-0045],
,,0,0,Cc1c(Cl)nc(NCCc2ccc(Cl)cc2)c(=O)n1CC(=O)NCCc1ccncc1 [Example E-0004],
,,0,0,Cc1c(Cl)nc(NCCc2cccc(Cl)c2)c(=O)n1CC(=O)NCCc1ccncc1 [Example E-0003],
,,0,0,O=C(Cn1c(-c2ccc3c(c2)OCO3)c(Cl)nc(NCCc2ccccc2)c1=O)NCCc1ccncc1 [Example E-0042],
,,0,0,O=C(Cn1c(-c2ccccc2)c(Cl)nc(NCc2ccncc2)c1=O)NCCc1ccncc1 [Example E-0016],
